Reference: the NIST ThermoML archive (doi:10.1021/je0400052)
± gives the expanded uncertainty stated by the source.

Key:
[1] = refractive index (Na D-line) (dimensionless); conditions: 101.33 kPa, Liquid
[2] = 101.33 kPa, Liquid

| Structure (SMILES) | refractive index ([1]; 303.15 K) | refractive index ([1]; 313.15 K) | mass density ([2]; 303.15 K) [kg/m3] | viscosity ([2]; 303.15 K) [mPa·s] | mass density ([2]; 313.15 K) [kg/m3] | viscosity ([2]; 313.15 K) [mPa·s] |
| --- | --- | --- | --- | --- | --- | --- |
| CCOC=O [ethyl methanoate] | 1.3552 ± 0.0032 | 1.3549 ± 0.0032 | 908.1 ± 2.1 | 0.366 ± 0.011 | 894.9 ± 2.2 | 0.339 ± 0.011 |
| CCOC(=O)c1ccccc1 [ethyl benzoate] | 1.5009 ± 0.0025 | 1.4997 ± 0.0025 | 1037.4 ± 2.3 | 1.748 ± 0.042 | 1028.5 ± 2.4 | 1.438 ± 0.035 |
| Cc1ccccc1C [1,2-dimethylbenzene] | 1.5001 ± 0.0025 | 1.4981 ± 0.0025 | 870.8 ± 1.9 | 0.695 ± 0.018 | 863.3 ± 2 | 0.621 ± 0.017 |
| Cc1ccc(C)cc1 [1,4-dimethylbenzene] | 1.4911 ± 0.0025 | 1.4902 ± 0.0025 | 851.9 ± 1.8 | 0.566 ± 0.016 | 844 ± 2 | 0.517 ± 0.015 |
